The text below walks through data of patent publication US20190100534A1, “Cephem Compounds with Latent Reactive Groups” (Gladius Pharmaceuticals, Inc., priority 2017, published 2019).

Holding throughout (format): cell-based
Test [1] relates to Isogenic E. coli J58 strain carrying IMP-1. Briefly: MIC determination, isogenic E. coli strains. Conditions: Escherichia coli, 18 h, read-out: Mimimum Inhibitory Concentrations, IMP-1. The procedure, abridged:
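Broth microdilution in cation-adjusted Mueller-Hinton broth with 20 μM apo-transferrin, compound serially diluted two-fold from 64 μg/mL, against E. coli J53 carrying plasmid-borne IMP-1. Inoculum adjusted to 0.5 McFarland; plates incubated 18 h at 37° C. MIC taken as lowest concentration giving a clear well.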

Test [2] deals with Pseudomonas aeruginosa PA-RR-(G7294437). The experiment in a line: MIC determination. As to conditions: Pseudomonas aeruginosa; PA-RR-(G7294437); CAMH broth, 20 μM Apo-Transferrin, 37° C., 18 hours; read-out: Minimum Inhibitory Concentrations, PA-RR-(G7294437). The method in brief: (§1)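 Values come from a visual broth microdilution read: the first transparent well at the lowest drug level defines MIC. Inocula were standardized to 0.5 McFarland units, and the medium was CAMH with 20 μM apo-transferrin. Plates incubated overnight, 18 h, at 37 °C.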

Test [3] has as its system Pseudomonas aeruginosa PA-RR-(98023895). The experiment in a line: MIC determination. As to conditions: Pseudomonas aeruginosa; PA-RR-(98023895); CAMH broth, 20 μM Apo-Transferrin, 37° C., 18 hours; read-out: Minimum Inhibitory Concentrations, PA-RR-(98023895). The method in brief: as §1
Test [4] has as its system Pseudomonas aeruginosa PA (URMC-3). The experiment in a line: MIC determination. Conditions: Pseudomonas aeruginosa; PA (URMC-3); CAMH broth, 20 μM Apo-Transferrin, 37° C., 18 hours; read-out: Minimum Inhibitory Concentrations, PA (URMC-3). The method in brief:
as §1

Test [5] relates to Pseudomonas aeruginosa PA-RR-(G8062859). Briefly: MIC determination. Conditions: Pseudomonas aeruginosa; PA-RR-(G8062859); CAMH broth, 20 μM Apo-Transferrin, 37° C., 18 hours; read-out: Minimum Inhibitory Concentrations, PA-RR-(G8062859). The procedure, abridged: as §1
Test [6] deals with Pseudomonas aeruginosa PA-RR-(G7304100). Briefly: MIC determination. Conditions: Pseudomonas aeruginosa; PA-RR-(G7304100); CAMH broth, 20 μM Apo-Transferrin, 37° C., 18 hours; read-out: Minimum Inhibitory Concentrations, PA-RR-(G7304100). The procedure, abridged:
as §1

For test [7], the system named is Isogenic E. coli J58 strain carrying NDM-1. Briefly: MIC determination, isogenic E. coli strains. As to conditions: Escherichia coli, 18 h, read-out: Mimimum Inhibitory Concentrations, NDM-1. The method in brief: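 E. coli J53 transformed with a pBC-SK(+) plasmid encoding NDM-1 was adjusted to 0.08-0.1 OD600. It was grown 18 h at 37° C in CAMH broth containing 20 μM apo-transferrin with twofold compound dilutions from 64 μg/mL. MIC was taken as the lowest concentration giving a transparent well.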

The test system of test [8] is E. coli J53 Alone. Briefly: MIC determination, isogenic E. coli strains. Conditions: for MIC: Escherichia coli, J53ALONE, 18 h, read-out: Mimimum Inhibitory Concentrations, J53 Alone; for Mimimum Inhibitory Concentrations, J53 Alone: Table 4-2, CAMH broth, 20 μM Apo-Transferrin, 37° C., 18 hours. The procedure, abridged:
(§2)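 Broth microdilution in cation-adjusted Mueller-Hinton broth with 20 μM apo-transferrin, 2-fold compound series from 64 μg/mL. E. coli J53, alone or transformed with a pBC-SK(+) plasmid carrying the beta-lactamase gene (e.g. DHA-1), inoculated from 0.5 McFarland suspension; 18 h at 37° C; MIC = lowest concentration with clear well.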

Test [9] relates to Isogenic E. coli J58 strain carrying DHA-1. The experiment in a line: MIC determination, isogenic E. coli strains. Conditions: Escherichia coli, 18 h, read-out: Mimimum Inhibitory Concentrations, DHA-1. The procedure, abridged: as §2
The subject of test [10] is Isogenic E. coli J58 strain carrying TEM-26. Briefly: MIC determination, isogenic E. coli strains. Conditions: Escherichia coli, 18 h, read-out: Mimimum Inhibitory Concentrations, TEM-26. The procedure, abridged:
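Broth microdilution in cation-adjusted Mueller-Hinton broth with 20 μM apo-transferrin, compound […] in twofold steps, inoculum from 0.5 McFarland suspension. E. coli J53 transformed with pBC-SK(+) encoding TEM-26; 18 h at 37° C, MIC as lowest concentration giving a clear well.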

Test [11] concerns Isogenic E. coli J58 strain carrying CTX-M-14. Briefly: MIC determination, isogenic E. coli strains. Conditions: Escherichia coli, 18 h, read-out: Mimimum Inhibitory Concentrations, CTX-M-14. The procedure, abridged: (§3)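 Isogenic E. coli J53 carrying plasmid-encoded CTX-M-14 or CTX-M-15 (ampicillin-selected), standardized to 0.08-0.1 OD600, incubated overnight (18 h, 37° C.) in CAMH broth plus 20 μM apo-transferrin over 2-fold compound dilutions starting at 64 μg/mL. Lowest concentration with no visible growth recorded as MIC.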

Test [12] deals with Isogenic E. coli J58 strain carrying CTX-M-15. Briefly: MIC determination, isogenic E. coli strains. As to conditions: Escherichia coli, 18 h, read-out: Mimimum Inhibitory Concentrations, CTX-M-15. The method in brief:
as §3

The test system of test [13] is Isogenic E. coli J58 strain carrying VIM-2. Briefly: MIC determination, isogenic E. coli strains. Conditions: Escherichia coli, 18 h, read-out: Mimimum Inhibitory Concentrations, VIM-2. The procedure, abridged:
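E. coli J53 transformed with pBC-SK(+) plasmid carrying synthesized VIM-2 gene, grown in LB to OD600 >0.1, adjusted to 0.08–0.1 OD600 in CAMH broth.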

Test [14] deals with Isogenic E. coli J58 strain carrying KPC-2. Briefly: MIC determination, isogenic E. coli strains. Conditions: Escherichia coli, 18 h, read-out: Mimimum Inhibitory Concentrations, KPC-2. The procedure, abridged:
(§4)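 Broth microdilution in cation-adjusted Mueller-Hinton broth with 20 μM apo-transferrin, compound at 64 down to […], inoculum set to 0.5 McFarland. E. coli J53 transformed with pBC-SK(+) carrying the synthetic beta-lactamase gene was used. Plates were incubated 18 h at 37 °C; MIC is the lowest concentration giving a clear well.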

Test [15] has as its system Isogenic E. coli J58 strain carrying KPC-3. Briefly: MIC determination, isogenic E. coli strains. As to conditions: Escherichia coli, 18 h, read-out: Mimimum Inhibitory Concentrations, KPC-3. The method in brief: as §4
Test [16] relates to Isogenic E. coli J58 strain carrying SHV-1. The experiment in a line: MIC determination, isogenic E. coli strains. Conditions: Escherichia coli, 18 h, read-out: Mimimum Inhibitory Concentrations, SHV-1. The method in brief: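 MIC is the lowest compound concentration leaving a transparent well after overnight (18 h) incubation at 37 °C. The test strain was E. coli J53 expressing plasmid-borne SHV-1 beta-lactamase from pBC-SK(+), adjusted to 0.5 McFarland. Compounds were twofold serially diluted, starting at 64 μg/mL, in CAMH broth supplemented with 20 μM apo-transferrin.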

As to `Cn1c[n+](Cc2ccc(C=CC3=C(C(=O)O)N4C(=O)[C@@H](NC(=O)/C(=N\OC(C)(C)C(=O)O)c5csc(N)n5)[C@H]4SC3)cc2)cc1C(=O)Nc1ccc(O)c(O)c1` (mixture of isomers) [Compound 411, 3-(4-((E/Z)-2-((6R,7R)-7-((Z)-2-(2-aminothiazol-4-yl)-2-(((2-carboxypropan-2-yl)oxy)imino)acetamido)-2-carboxy-8-oxo-5-thia-1-azabicyclo[4.2.0]oct-2-en-3-yl)vinyl)benzyl)-5-((3,4-dihydroxyphenyl)carbamoyl)-1-methyl-1H-imidazol-3-ium], the MIC in test [1] turned out to be 64 µg/mL; in test [2], 1 µg/mL; in [3], 8 µg/mL; in [4], 0.5 µg/mL; in test [5], 2 µg/mL; in test [6], 1 µg/mL. Further, the MIC was more than 64 µg/mL in [7]; 0.5 µg/mL in test [8]; 1 µg/mL in [9]; 8 µg/mL in [10]; 4 µg/mL in test [11]; 0.5 µg/mL in test [12]. In addition, the MIC in test [13] is 2 µg/mL; in test [14] it was 32 µg/mL; in [15] it was 8 µg/mL; in test [16], 4 µg/mL. Also, the “Mimimum Inhibitory Concentrations, J53 Alone” value in [8] was 0.5 microgram/mL.
With `CC(C)(O/N=C(\C(=O)N[C@@H]1C(=O)N2C(C(=O)O)=C(C=Cc3ccc(C[N+](C)(C)Cc4ccc(O)c(O)c4)cc3)CS[C@H]12)c1csc(N)n1)C(=O)O` (mixture of isomers) [Compound 426, N-(4-((E/Z)-2-((6R,7R)-7-((Z)-2-(2-aminothiazol-4-yl)-2-(((2-carboxypropan-2-yl)oxy)imino)acetamido)-2-carboxy-8-oxo-5-thia-1-azabicyclo[4.2.0]oct-2-en-3-yl)vinyl)benzyl)-1-(3,4-dihydroxyphenyl)-N,N-dimethylmethanaminium], the MIC in test [1] was determined as 32 µg/mL; in [2], 0.5 µg/mL; in test [3], 8 µg/mL; in test [4], 64 µg/mL; in test [5], 2 µg/mL; in [6], 0.25 µg/mL. In addition, the MIC is more than 64 µg/mL in test [7]; 1 µg/mL in test [8]; 0.5 µg/mL in test [9]; 8 µg/mL in [10]; 0.5 µg/mL in [11]; 0.5 µg/mL in test [12]. The MIC in [13] was found to be 8 µg/mL; in test [14], 64 µg/mL; in test [15] it was 8 µg/mL; in test [16], 0.5 µg/mL. Also, the “Mimimum Inhibitory Concentrations, J53 Alone” value in test [8] is 1 microgram/mL.
For `CC(C)(O/N=C(\C(=O)N[C@@H]1C(=O)N2C(C(=O)O)=C(C=Cc3ccc(C[N+](C)(C)Cc4ccc(O)c(O)c4Cl)cc3)CS[C@H]12)c1csc(N)n1)C(=O)O` (mixture of isomers) [Compound 434, N-(4-((E/Z)-2-((6R,7R)-7-((Z)-2-(2-aminothiazol-4-yl)-2-(((2-carboxypropan-2-yl)oxy)imino)acetamido)-2-carboxy-8-oxo-5-thia-1-azabicyclo[4.2.0]oct-2-en-3-yl)vinyl)benzyl)-1-(2-chloro-3,4-dihydroxyphenyl)-N,N-dimethylmethanaminium], the MIC in test [1] was determined as 0.25 µg/mL; in test [2], 0.5 µg/mL; in [3] it was 8 µg/mL; in test [4], 16 µg/mL; in test [5], 2 µg/mL; in test [6] it was 2 µg/mL. For the same molecule, the MIC in test [7] is more than 64 µg/mL; in test [8] it was 0.25 µg/mL; in test [9], 1 µg/mL; in test [10], 2 µg/mL; in test [11], 2 µg/mL; in [12] it was 0.5 µg/mL. For the same molecule, the MIC in test [13] was determined as 2 µg/mL; in [14] it was 16 µg/mL; in [15], 64 µg/mL; in [16] it was 1 µg/mL. Moreover, the “Mimimum Inhibitory Concentrations, J53 Alone” value in test [8] is recorded as 0.25 microgram/mL.
With `Cc1c[n+](Cc2ccc(C=CC3=C(C(=O)O)N4C(=O)[C@@H](NC(=O)/C(=N\OC(C)(C)C(=O)O)c5csc(N)n5)[C@H]4SC3)cc2)ccc1-c1ccc(O)c(O)c1` (mixture of isomers) [Compound 422, 1-(4-((E/Z)-2-((6R,7R)-7-((Z)-2-(2-aminothiazol-4-yl)-2-(((2-carboxypropan-2-yl)oxy)imino)acetamido)-2-carboxy-8-oxo-5-thia-1-azabicyclo[4.2.0]oct-2-en-3-yl)vinyl)benzyl)-4-(3,4-dihydroxyphenyl)-3-methylpyridin-1-ium], the MIC in [1] was more than 64 µg/mL; in [2] it was 2 µg/mL; in [3] it was 8 µg/mL; in [4] it was not above 0.06 µg/mL; in test [5], 2 µg/mL; in test [6], not above 0.06 µg/mL. For the same molecule, the MIC in test [7] is more than 64 µg/mL; in test [8], 0.25 µg/mL; in test [9], 0.25 µg/mL; in test [10] it was 4 µg/mL; in test [11], 4 µg/mL; in [12], 4 µg/mL. Moreover, the MIC in [13] is 1 µg/mL; in test [14], 16 µg/mL; in [15], 8 µg/mL; in test [16], 2 µg/mL. Further, the “Mimimum Inhibitory Concentrations, J53 Alone” value in test [8] turned out to be 0.25 microgram/mL.
